For 20 compounds, IC50 results are on record in patent US9604989B2, “Imidazopyridazines as Akt kinase inhibitors” (Bayer Intellectual Property GmbH, priority 2011, dated 2017).

Test [1] addresses His-tagged human recombinant kinase full-length Akt1 (Homo sapiens (Human), UniProt P31749). Nature of the test: Akt1 kinase assay (Akt1 TR-FRET assay). It is filed as biochemical. To be noted: 10 μM ATP, 60 min at 22° C., read-out: Akt1 median IC50.
Source text: Biological Assay 1.0: Akt1 Kinase Assay
Akt1 inhibitory activity of compounds of the present invention was quantified employing the Akt1 TR-FRET assay as described in the following paragraphs.
His-tagged human recombinant kinase full-length Akt1 expressed in insect cells was purchased form Invitrogen (part number PV 3599). As substrate for the kinase reaction the biotinylated peptide biotin-Ahx-[sequence] (C-terminus in amide form) was used which can be purchased e.g. from the company Biosynthan GmbH (Berlin-Buch, Germany).
For the assay 50 nl of a 100 fold concentrated solution of the test compound in DMSO was pipetted into a black low volume 384 well microtiter plate (Greiner Bio-One, Frickenhausen, Germany), 2 μl of a solution of Akt1 in assay buffer [50 mM TRIS/HCl pH 7.5, 5 mM MgCl2, 1 mM dithiothreitol, 0.02% (v/v) Triton X-100 (Sigma)] were added and the mixture was incubated for 15 min at 22° C. to allow pre-binding of the test compounds to the enzyme before the start of the kinase reaction. Then the kinase reaction was started by the addition of 3 μl of a solution of adenosine-tri-phosphate (ATP, 16.7 μM=>final conc. in the 5 μl assay volume is 10 μM) and substrate (1.67 μM=>final conc. in the 5 μl assay volume is 1 μM) in assay buffer and the resulting mixture was incubated for a reaction time of 60 min at 22° C. The concentration of Akt1 in the assay was adjusted depending of the activity of the enzyme lot and was chosen appropriate to have the assay in the linear range, typical enzyme concentrations were in the range of about 0.05 ng/μl (final conc. in the 5 μl assay volume). The reaction was stopped by the addition of 5 μl of a solution of HTRF detection reagents (200 nM streptavidine-XL665 [Cisbio] and 1.5 nM anti-phosho-Serine antibody [Millipore, cat. #35-001] and 0.75 nM LANCE Eu-W 1024 labeled anti-mouse IgG antibody [Perkin Elmer]) in an aqueous EDTA-solution (100 mM EDTA, 0.1% (w/v) bovine serum albumin in 50 mM HEPES/NaOH pH 7.5). The resulting mixture was incubated 1 h at 22° C. to allow the binding of the biotinylated phosphorylated peptide to the streptavidine-XL665 and the antibodies. Subsequently the amount of phosphorylated substrate was evaluated by measurement of the resonance energy transfer from the anti-mouse-IgG-Eu-Chelate to the streptavidine-XL665. Therefore, the fluorescence emissions at 620 nm and 665 nm after excitation at 350 nm was measured in a HTRF reader, e.g. a Rubystar (BMG Labtechnologies, Offenburg, Germany) or a Viewlux (Perkin-Elmer). The ratio of the emissions at 665 nm and at 622 nm was taken as the measure for the amount of phosphorylated substrate.
For test [2], the target named is His-tagged human recombinant kinase full-length Akt2 (Homo sapiens (Human), UniProt P31751). The experiment in a line: Akt2 kinase assay (Akt2 TR-FRET assay). It counts as biochemical. To be noted: 10 μM ATP, 60 min at 22° C., read-out: Akt2 median IC50. Background: Time-resolved FRET reads energy transfer from a long-lived donor to a nearby acceptor.
Source text: Akt2 inhibitory activity of compounds of the present invention was quantified employing the Akt2 TR-FRET assay as described in the following paragraphs.
His-tagged human recombinant kinase full-length Akt2 expressed in insect cells and activated by PDK1 was purchased form Invitrogen (part number PV 3975). As substrate for the kinase reaction the biotinylated peptide biotin-Ahx-[sequence] (C-terminus in amide form) was used which can be purchased e.g. from the company Biosynthan GmbH (Berlin-Buch, Germany). For the assay 50 nl of a 100 fold concentrated solution of the test compound in DMSO was pipetted into a black low volume 384 well microtiter plate (Greiner Bio-One, Frickenhausen, Germany), 2 μl of a solution of Akt2 in assay buffer [50 mM TRIS/HCl pH 7.5, 5 mM MgCl2, 1 mM dithiothreitol, 0.02% (v/v) Triton X-100 (Sigma)] were added and the mixture was incubated for 15 min at 22° C. to allow pre-binding of the test compounds to the enzyme before the start of the kinase reaction. Then the kinase reaction was started by the addition of 3 μl of a solution of adenosine-tri-phosphate (ATP, 16.7 μM=>final conc. in the 5 μl assay volume is 10 μM) and substrate (1.67 μM=>final conc. in the 5 μl assay volume is 1 μM) in assay buffer and the resulting mixture was incubated for a reaction time of 60 min at 22° C. The concentration of Akt2 in the assay was adjusted depending of the activity of the enzyme lot and was chosen appropriate to have the assay in the linear range, typical enzyme concentrations were in the range of about 0.2 ng/μl (final conc. in the 5 μl assay volume). The reaction was stopped by the addition of 5 μl of a solution of HTRF detection reagents (200 nM streptavidine-XL665 [Cisbio] and 1.5 nM anti-phosho-Serine antibody [Millipore, cat. #35-001] and 0.75 nM LANCE Eu-W 1024 labeled anti-mouse IgG antibody [Perkin Elmer]) in an aqueous EDTA-solution (100 mM EDTA, 0.1% (w/v) bovine serum albumin in 50 mM HEPES/NaOH pH 7.5). The resulting mixture was incubated 1 h at 22° C. to allow the binding of the biotinylated phosphorylated peptide to the streptavidine-XL665 and the antibodies. Subsequently the amount of phosphorylated substrate was evaluated by measurement of the resonance energy transfer from the anti-mouse-IgG-Eu-Chelate to the streptavidine-XL665. Therefore, the fluorescence emissions at 620 nm and 665 nm after excitation at 350 nm was measured in a TR-FRET reader, e.g. a Rubystar (BMG Labtechnologies, Offenburg, Germany) or a Viewlux (Perkin-Elmer). The ratio of the emissions at 665 nm and at 622 nm was taken as the measure for the amount of phosphorylated substrate.
The subject of test [3] is phospho-AKT at S473. The experiment in a line: Cellular p-AKT1/2/3-S473 assay in KPL-4 cells. The following applies: Homo sapiens, KPL4; KPL-4 breast tumour cell line, compound treatment 2 hours; read-out: pAKT-S473 median IC50. It is filed as cell-based.
Procedure: The molecular mechanism of action was investigated in a set of experiments to assess the inhibition of the PI3K-AKT-mTOR pathway in responsive cell lines such as KPL-4 breast tumour cell line (PIK3CA^H1047R, HER2^O/E and hormone independent). The phospho-substrates of PI3K-AKT-mTOR axis were used as the read-outs to reflect pathway inhibition. Cells were seeded at 60-80% confluency per well in 96-well cell culture plates. After overnight incubation at 37° C. 5% CO2, cells were treated with compounds and vehicle at 37° C. for 2 hours. […] All measurements where at least done in duplicates and confirmed by independent repetition.
Alternatively pAKT-S473 was measured using the “Akt Duplex” of the MULTI-SPOT® Assay System (Fa. Meso Scale Discovery, Cat#N41100B-1) following manufacturers instructions. Each assay used 20 μg of protein extract and measured total AKT and p-AKT content simultaneously in one well. All measurements where at least done in duplicates and confirmed by independent repetition. Values for P-AKT are expressed as percentage of P-AKT level compared to total-AKT content of the extracts.
Test [4] deals with p-4E-BP1 at T70. Nature of the test: Cellular p-4E-BP1-T70 assay in KPL-4 cells. It is filed as cell-based. The following applies: Homo sapiens, KPL4; KPL-4 breast tumour cell line, compound treatment 2 hours; read-out: P4EBP1-T70 median IC50.
The subject of test [5] is KPL-4 breast cancer cell line. The experiment in a line: Tumor cell proliferation assay (CellTiter-Glo), KPL-4. It is filed as cell-based. The following applies: Homo sapiens, KPL4, 72 h drug exposure, read-out: KLP-4 median IC50.
For test [6], the system named is MCF-7 breast tumour cell line. The experiment in a line: Tumor cell proliferation assay (CellTiter-Glo), MCF-7. It is filed as cell-based. The following applies: Homo sapiens, MCF7, 72 h drug exposure, read-out: MCF-7 median IC50. For orientation: In ATP-based viability assays light output follows the ATP content of the culture.
Procedure: Biological Assay 4.0: Tumor Cell Proliferation Assays
Compounds were tested in a cell-based assay that measures the capacity of the compounds to inhibit tumour cell proliferation following a 72 h drug exposure. Cell viability is determined using CellTiter-Glow® (CTG, Promega, cat#G7571/2/3). The CellTiter-Glo® Luminescent Cell Viability Assay is a homogeneous method to determine the number of viable cells in culture.
Detection is based on using the luciferase reaction to measure the amount of ATP from viable cells. The amount of ATP in cells correlates with cell viability. Within minutes after a loss of membrane integrity, cells lose the ability to synthesize ATP, and endogenous ATPases destroy any remaining ATP; thus the levels of ATP fall precipitously.
For each cell line assayed, cells were plated onto a separate plate for determination of fluorescence at t=0 hour and t=72 hour time points. Following overnight incubation at 37° C., chemiluminescence values for the t=0 samples were determined after adding 10 μl medium and 100 μl CTG solution according to manufacture protocol. Plates for the t=72 hour time points were treated with compounds diluted into growth medium at ten times final concentration added in 10 μL to the cell culture plate. Cells were then incubated for 72 hours at 37° C. Chemiluminescence values for the t=72 hour samples were determined. […] Experiments were controlled using a reference compound as standard.

Chain of His-tagged human recombinant kinase full-length Akt1 (P31749 whole entry): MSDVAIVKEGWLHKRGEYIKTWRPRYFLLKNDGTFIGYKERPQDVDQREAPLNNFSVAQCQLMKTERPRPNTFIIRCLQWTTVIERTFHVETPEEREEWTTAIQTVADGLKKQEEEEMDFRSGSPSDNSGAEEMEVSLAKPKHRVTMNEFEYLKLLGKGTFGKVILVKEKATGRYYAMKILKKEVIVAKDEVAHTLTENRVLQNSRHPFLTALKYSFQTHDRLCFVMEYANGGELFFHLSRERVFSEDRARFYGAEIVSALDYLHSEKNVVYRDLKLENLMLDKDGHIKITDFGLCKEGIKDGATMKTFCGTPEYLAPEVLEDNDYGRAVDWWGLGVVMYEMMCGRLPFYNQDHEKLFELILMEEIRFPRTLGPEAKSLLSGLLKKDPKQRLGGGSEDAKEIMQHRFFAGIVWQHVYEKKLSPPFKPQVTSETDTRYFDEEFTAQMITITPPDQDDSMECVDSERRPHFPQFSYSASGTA
Chain of His-tagged human recombinant kinase full-length Akt2 (P31751 whole entry): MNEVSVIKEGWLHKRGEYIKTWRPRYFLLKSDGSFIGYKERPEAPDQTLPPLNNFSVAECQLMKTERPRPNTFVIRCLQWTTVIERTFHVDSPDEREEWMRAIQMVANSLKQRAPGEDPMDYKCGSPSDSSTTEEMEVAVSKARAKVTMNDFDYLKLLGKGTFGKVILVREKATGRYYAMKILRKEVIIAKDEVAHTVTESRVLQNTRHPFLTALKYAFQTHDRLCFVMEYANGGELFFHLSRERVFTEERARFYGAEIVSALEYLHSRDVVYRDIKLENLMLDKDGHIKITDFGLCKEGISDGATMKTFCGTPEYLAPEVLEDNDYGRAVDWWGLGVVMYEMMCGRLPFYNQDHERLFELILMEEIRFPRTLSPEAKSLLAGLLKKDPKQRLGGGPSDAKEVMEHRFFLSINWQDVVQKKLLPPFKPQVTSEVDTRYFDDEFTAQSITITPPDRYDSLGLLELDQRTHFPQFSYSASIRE

Regarding `NC1(c2ccc(-c3nc4ccc(O)nn4c3-c3ccccc3)cc2)CCC1` [Example 79, 2-[4-(1-Aminocyclobutyl)phenyl]-3-phenylimidazo[1,2-b]pyridazin-6-ol], the half-inhibitory concentration (IC50) in test [1] worked out at 2 µM; in test [2] it was 2.8 µM; in test [3] it was 0.21 µM; in test [4], 0.91 µM; in test [5] it was 10 µM; in test [6], 10 µM.
`NC1(c2ccc(-c3nc4c(OCc5ccccc5)cc(Cl)nn4c3-c3ccccc3)cc2)CCC1` [Example 29, 1-{4-[8-(Benzyloxy)-6-chloro-3-phenylimidazo[1,2-b]pyridazin-2-yl]phenyl}cyclobutanamine]: the IC50 in test [1] is 0.056 µM; in test [2] it was 0.078 µM; in test [3] it was 0.21 µM; in test [4] it was 1.3 µM; in test [5], 2 µM; in test [6], 1.7 µM.
Take `CCOc1cc(C(N)=O)nn2c(-c3ccccc3)c(-c3ccc(C4(N)CCC4)cc3)nc12` [Example 61, 2-[4-(1-Aminocyclobutyl)phenyl]-8-ethoxy-3-phenylimidazo[1,2-b]pyridazine-6-carboxamide]: the IC50 in test [1] was determined as 0.0041 µM; in test [2] it was 0.0037 µM; in test [3], 0.0005 µM; in test [4] it was 0.002 µM; in test [5] it was 0.033 µM; in test [6], 0.056 µM.
`COc1cc(OC)c2nc(-c3ccc(C4(N)CCC4)cc3)c(-c3ccccc3)n2n1` [Example 9, 1-[4-(6,8-Dimethyloxy-3-phenylimidazo[1,2-b]pyridazin-2-yl)phenyl]-cyclobutanamine]: the half-maximal inhibitory concentration (IC50) in test [1] was 0.0039 µM; in test [2], 0.018 µM; in test [3], 0.036 µM; in test [4], 0.69 µM; in test [5] it was 0.77 µM; in test [6], 0.34 µM.
`COc1cc(-c2cc[nH]n2)c2nc(-c3ccc(C4(N)CCC4)cc3)c(-c3ccccc3)n2n1` [Example 73, 1-{4-[6-Methoxy-3-phenyl-8-(1H-pyrazol-3-yl)imidazo[1,2-b]pyridazin-2-yl]-phenyl}cyclobutanamine]: the IC50 worked out at 0.0043 µM in test [1]; 0.043 µM in test [2]; 0.23 µM in test [3]; 1.7 µM in test [4]; 1.8 µM in test [5]; 2 µM in test [6].
In the case of `COc1cc(C(N)=O)nn2c(-c3ccccc3)c(-c3ccc(C4(N)CCC4)cc3)nc12` [Example 10, 2-[4-(1-Aminocyclobutyl)phenyl]-8-methoxy-3-phenylimidazo[1,2-b]-pyridazine-6-carboxamide], the half-maximal inhibitory concentration (IC50) in test [1] was 0.0026 µM; in test [2], 0.0041 µM; in test [3], 0.0024 µM; in test [4], 0.028 µM; in test [5], 0.049 µM; in test [6], 0.039 µM.
As to `C=Cc1cc(OC)c2nc(-c3ccc(C4(N)CCC4)cc3)c(-c3ccccc3)n2n1` [Example 18, 1-[4-(8-Methoxy-3-phenyl-6-vinylimidazo[1,2-b]pyridazin-2-yl)phenyl]-cyclobutanamine], the IC50 in test [1] worked out at 0.086 µM; in test [2], 0.053 µM; in test [3] it was 0.18 µM; in test [4] it was 0.71 µM; in test [5], 1.6 µM; in test [6], 1.1 µM.
Take `COc1cc(-c2cccnc2)c2nc(-c3ccc(C4(N)CCC4)cc3)c(-c3ccccc3)n2n1` [Example 14, 1-{4-[6-Methoxy-3-phenyl-8-(pyridin-3-yl)imidazo [1,2-b]pyridazin-2-yl]phenyl}cyclobutanamine]: the IC50 in test [1] came to 0.0098 µM; in test [2], 0.065 µM; in test [3], 0.22 µM; in test [4] it was 0.32 µM; in test [5], 1.9 µM; in test [6], 1.8 µM.
As to `CNC(=O)c1ccc2nc(-c3ccc(C4(N)CCC4)cc3)c(-c3ccccc3)n2n1` [Example 68, 2-[4-(1-Aminocyclobutyl)phenyl]-N-methyl-3-phenylimidazo[1,2-b]-pyridazine-6-carboxamide], the half-maximal inhibitory concentration (IC50) in test [1] was 0.021 µM; in test [2], 0.066 µM; in test [3], 0.0037 µM; in test [4] it was 5.3 µM; in test [5] it was 1.5 µM; in test [6] it was 0.68 µM.
For `CCc1cc(CC)c2nc(-c3ccc(C4(N)CCC4)cc3)c(-c3ccccc3)n2n1` [Example 16, 1-[4-(6,8-Diethyl-3-phenylimidazo[1,2-b]pyridazin-2-yl)phenyl]cyclobutanamine], the concentration for half-maximal inhibition (IC50) in test [1] turned out to be 0.16 µM; in test [2] it was 0.16 µM; in test [3], 0.52 µM; in test [4], 2.5 µM; in test [5] it was 2 µM; in test [6], 1.8 µM.
Regarding `NC1(c2ccc(-c3nc4ccc(Br)nn4c3-c3ccccc3)cc2)CCC1` [Example 41, 1-[4-(6-Bromo-3-phenylimidazo[1,2-b]pyridazin-2-yl)phenyl]cyclobutanamine], the half-inhibitory concentration (IC50) in test [1] was 0.033 µM; in test [2] it was 0.066 µM; in test [3], above 10 µM; in test [4] it was above 10 µM; in test [5] it was above 10 µM; in test [6], above 10 µM.
In the case of `CCCCOc1cc(OCC)nn2c(-c3ccccc3)c(-c3ccc(C4(N)CCC4)cc3)nc12` [Example 77, 1-[4-(8-Butoxy-6-ethoxy-3-phenylimidazo[1,2-b]pyridazin-2-yl)phenyl]-cyclobutanamine], the IC50 worked out at 0.01 µM in test [1]; 0.061 µM in test [2]; 0.46 µM in test [3]; 1.4 µM in test [4]; 1.9 µM in test [5]; 1.7 µM in test [6].
Regarding `COC(=O)c1ccc2nc(-c3ccc(C4(N)CCC4)cc3)c(-c3ccccc3)n2n1` [Example 39, Methyl 2-[4-(1-aminocyclobutyl)phenyl]-3-phenylimidazo[1,2-b]pyridazine-6-carboxylate], the IC50 in test [1] is 0.038 µM; in test [2], 0.16 µM; in test [3], 0.28 µM; in test [4], 7.5 µM; in test [5], above 10 µM; in test [6], 6.1 µM.
In the case of `NC1(c2ccc(-c3nc4c(-c5ccc(F)cc5)cc(-c5ccc(F)cc5)nn4c3-c3ccccc3)cc2)CCC1` [Example 42, 1-{4-[6,8-Bis(4-fluorophenyl)-3-phenylimidazo[1,2-b]pyridazin-2-yl]phenyl}cyclobutanamine], the half-inhibitory concentration (IC50) in test [1] is 20 µM; in test [2], 20 µM; in test [3], 0.12 µM; in test [4] it was 2.6 µM; in test [5] it was 2.8 µM; in test [6] it was 4.2 µM.
For the compound `CC(=O)Nc1ccnn2c(-c3ccccc3)c(-c3ccc(C4(N)CCC4)cc3)nc12` [Example 49, N-{2-[4-(1-Aminocyclobutyl)phenyl]-3-phenylimidazo[1,2-b]pyridazin-8-yl}acetamide], the concentration for half-maximal inhibition (IC50) was found to be 0.068 µM in test [1]; 0.12 µM in test [2]; 0.008 µM in test [3]; 0.041 µM in test [4]; 0.14 µM in test [5]; 0.61 µM in test [6].
In the case of `COC(=O)c1cc(-c2ncc[nH]2)c2nc(-c3ccc(C4(N)CCC4)cc3)c(-c3ccccc3)n2n1` [Example 58, Methyl 2-[4-(1-aminocyclobutyl)phenyl]-8-(1H-imidazol-2-yl)-3-phenylimidazo[1,2-b]pyridazine-6-carboxylate], the IC50 was 0.11 µM in test [1]; 0.28 µM in test [2]; 1 µM in test [3]; 10 µM in test [4]; above 10 µM in test [5]; above 10 µM in test [6].
On to `CSc1nn2c(-c3ccccc3)c(-c3ccc(C4(N)CCC4)cc3)nc2c(C)c1C` [Example 54, 1-{4-[7,8-Dimethyl-6-(methylsulfanyl)-3-phenylimidazo[1,2-b]pyridazin-2-yl]-phenyl}cyclobutanamine], for which the IC50 in test [1] came out at 0.012 µM; in test [2], 0.035 µM; in test [3], 0.69 µM; in test [4], 1.6 µM; in test [5], 0.74 µM; in test [6], 1.8 µM.
As for `CCc1ccc2nc(-c3ccc(C4(N)CCC4)cc3)c(-c3ccccc3)n2n1` [Example 2, 1-[4-(6-Ethyl-3-phenylimidazo[1,2-b]pyridazin-2-yl)phenyl]cyclobutanamine], the IC50 was found to be 0.065 µM in test [1]; 0.097 µM in test [2]; 0.31 µM in test [3]; 2.1 µM in test [4]; 1.7 µM in test [5]; 1.7 µM in test [6].
With `NC1(c2ccc(-c3nc4c(-c5cc[nH]n5)cc(Cl)nn4c3-c3ccccc3)cc2)CCC1` [Example 19, 1-{4-[6-Chloro-3-phenyl-8-(1H-pyrazol-3-yl)imidazo[1,2-b]pyridazin-2-yl]phenyl} cyclobutanamine], the IC50 in test [1] is 0.015 µM; in test [2], 0.042 µM; in test [3] it was 0.39 µM; in test [4], 5.1 µM; in test [5], 2 µM; in test [6] it was 1.8 µM.
In the case of `COc1cc(-c2ccncc2)c2nc(-c3ccc(C4(N)CCC4)cc3)c(-c3ccccc3)n2n1` [Example 75, 1-{4-[6-Methoxy-3-phenyl-8-(pyridin-4-yl)imidazo[1,2-b]pyridazin-2-yl]phenyl}cyclobutanamine], the half-inhibitory concentration (IC50) turned out to be 0.021 µM in test [1]; 0.1 µM in test [2]; 0.23 µM in test [3]; 1.5 µM in test [4]; 1.8 µM in test [5]; 1.8 µM in test [6].

By IC50 is commonly meant the concentration at which inhibition is half-maximal.
